Laboratory results: patent US3950354A, “Imidazolylacetic acid amides” (Bayer Aktiengesellschaft, priority 1972, dated 1976)
In brackets after ≈: the same amount, converted by molar mass. Where two headings read alike, the source gives them in different places.

What was measured:
[1] = tested on: Candida albicans; assay: Anti-mycotic spectrum of action in vitro, series dilution test (Candida albicans); assay type: cell-based; settings: read-out: Minimum inhibitory concentration
Method: (§1) Determination of the anti-mycotic spectrum of action in vitro, by the series dilution test
(§2) The nutrient substrates used were Sabouraud's milieu d'epreuve for dermatophytes and moulds, and meat broth-glucose bouillon for blastomycetes and biphase fungi.
(§3) The incubation temperature was 28°C and the incubation time was 24 to 96 hours.

[2] = tested on: Trichophyton mentagrophytes; assay: Anti-mycotic spectrum of action in vitro, series dilution test (Trichophyton mentagrophytes); assay type: cell-based; settings: read-out: Minimum inhibitory concentration
Method: as §1, §2, §3

[3] = tested on: Penicillium commune; assay: Anti-mycotic spectrum of action in vitro, series dilution test (Penicillium commune); assay type: cell-based; settings: read-out: Minimum inhibitory concentration
Method: as §1, §2, §3

[4] = tested on: Candida albicans; assay: Candidosis of mice; assay type: in vivo, Mice of type SPF-CF1; settings: oral, 50, 75, 100 and 150 mg/kg, one hour before and 7 hours after infection; 1 to 2 × 10^6 Candida cells intravenously
Method: Mice of type SPF-CF1 were intravenously infected with 1 to 2 × 10^6 Candida cells which were suspended in physiological sodium chloride solution.
One hour before and 7 hours after infection, the animals were treated orally with 50, 75, 100 and 150 mg of the compounds according to the invention/kg of body weight. Untreated control animals died of the infection, 3 to 6 days after infection.

[5] = tested on: Aspergillus niger; assay: Anti-mycotic spectrum of action in vitro, series dilution test (Aspergillus niger); assay type: cell-based; settings: * = 90% inhibition of growth, read-out: Minimum inhibitory concentration
Method: as §1, §2, §3

[6] = tested on: Microsporon felineum; assay: Anti-mycotic spectrum of action in vitro, series dilution test (Microsporon felineum); assay type: cell-based; settings: read-out: Minimum inhibitory concentration
Method: as §1, §2, §3

[7] = n.s. = no serum added, meat broth-glucose bouillon, 28°C, 24 to 96 hours
[8] = n.s. = no serum added, Sabouraud's milieu d'epreuve, 28°C, 24 to 96 hours
[9] = n.s. = no serum added, + = 50% inhibition of growth
[10] = n.s. = no serum added, * = 90% inhibition of growth

Row | SMILES | MIC [1, 7] [µg/mL] | MIC ([1]; w.s. = with 30% serum added) [µg/mL] | MIC [2, 8] [µg/mL] | MIC ([2]; w.s. = with 30% serum added) [µg/mL] | MIC ([3]; 28°C, 24 to 96 hours) [µg/mL] | Action in the case of Candida albicans (survivals on 6th day after infection) [4] | further results
1 | O=C(N1CCS(=O)(=O)CC1c1ccccc1)C(c1ccc(Cl)cc1)(c1ccc(Cl)cc1)n1ccnc1 (stereo not drawn) [Example 11, 4-[ω,ω-di-(4-chlorophenyl)-ω-imidazolyl-(1)-methylcarbonyl]-3-phenyl-1,4-thiazine dioxide] | > 64 | > 64 | 32 (≈ 59.2 µM) | 32 (≈ 59.2 µM) | > 64 | – | –
2 | O=C(N1CCS(=O)(=O)CC1)C(c1ccc(Cl)cc1)(c1ccc(Cl)cc1)n1ccnc1 [Example 2, [ω,ω-di(4-chlorophenyl)-ω-imidazolyl-(1)-methylcarbonyl-(4)]-1,4-thiazine dioxide] | > 100 | – | 100 (≈ 215 µM) | – | > 100 | + (50% survivals on 6th day after infection) | –
3 | Cc1cc(Cl)ccc1NC(=O)C(c1ccccc1)(c1ccccc1)n1ccnc1 [Example 5, ω,ω-diphenyl-ω-imidazolyl-(1)-acetic acid 2-methyl-4-chloro-anilide] | – | – | 32 (≈ 79.6 µM) | 32 (≈ 79.6 µM) | > 64 | – | MIC [1, 9]: 8 µg/mL; MIC ([1]; w.s. = with 30% serum added, + = 50% inhibition of growth): 64 µg/mL
4 | O=C(Nc1cccc(C(F)(F)F)c1)C(c1ccccc1)(c1ccccc1)n1ccnc1 [Example 4, ω,ω-diphenyl-ω-imidazolyl-(1)-acetic acid 3-trifluoromethylanilide] | > 64 | > 64 | 64 (≈ 152 µM) | 64 (≈ 152 µM) | > 64 | – | –
5 | O=C(NC1CCCCC1)C(c1ccccc1)(c1ccccc1)n1ccnc1 [Example 7, ω,ω-diphenyl-ω-imidazolyl-(1)-acetic acid cyclohexylamide] | – | 8 (≈ 22.3 µM) | – | > 64 | > 64 | ++ (60 to 80% survivials on 6th day after infection) | MIC [1, 10]: 4 µg/mL (≈ 11.1 µM); MIC [2, 10]: 32 µg/mL (≈ 89 µM)

The next lines start with results.

Row | MIC [1, 7] [µg/mL] | MIC ([1]; w.s. = with 30% serum added) [µg/mL] | MIC [2, 8] [µg/mL] | MIC ([2]; w.s. = with 30% serum added) [µg/mL] | MIC ([3]; 28°C, 24 to 96 hours) [µg/mL] | SMILES | Action in the case of Candida albicans (survivals on 6th day after infection) [4] | further results
6 | > 100 | – | 10 (≈ 21.9 µM) | 40 (≈ 87.5 µM) | > 100 | O=C(N1CCN(c2ccccc2Cl)CC1)C(c1ccccc1)(c1ccccc1)n1ccnc1 [Example 13, 4-[ω,ω-diphenyl-ω-imidazolyl-(1)-methylcarbonyl]-1-o-chlorophenyl-piperazine] | – | MIC ([5]; n.s. = no serum added): 1 µg/mL (≈ 2.19 µM); MIC ([5]; w.s. = with 30% serum added): 100 µg/mL (≈ 219 µM); MIC ([6]; 28°C, 24 to 96 hours): 100 µg/mL (≈ 219 µM)
7 | – | > 64 | – | – | > 64 | CCOC(=O)N1CCN(C(=O)C(c2ccccc2)(c2ccccc2)n2ccnc2)CC1 [Example 12, 4-[ω,ω-diphenyl-ω-imidazolyl-(1)-methylcarbonyl]-1-ethoxycarbonyl-piperazine] | + (50% survivals on 6th day after infection) | MIC [1, 9]: 64 µg/mL; MIC [2, 9]: 64 µg/mL
8 | – | – | – | 8 (≈ 18.9 µM) | – | O=C(Nc1ccc(Cl)cc1Cl)C(c1ccccc1)(c1ccccc1)n1ccnc1 [Example 6, ω,ω-diphenyl-ω-imidazolyl-(1)-acetic acid 2,4-dichloroanilide] | – | MIC [1, 10]: 1 µg/mL (≈ 2.37 µM); MIC ([1]; w.s. = with 30% serum added, * = 90% inhibition of growth): 32 µg/mL (≈ 75.8 µM); MIC [2, 10]: 1 µg/mL (≈ 2.37 µM); MIC ([5]; n.s. = no serum added): 4 µg/mL (≈ 9.47 µM); MIC ([5]; w.s. = with 30% serum added): 8 µg/mL (≈ 18.9 µM); MIC ([3]; * = 90% inhibition of growth): 64 µg/mL (≈ 152 µM); MIC ([6]; * = 90% inhibition of growth): 4 µg/mL (≈ 9.47 µM)
